Test results from article PMC9088311, “Cyclic Thiosulfonates for Thiol-Mediated Uptake: Cascade Exchangers, Transporters, Inhibitors” (JACS Au, 2022).
Read-outs that look alike come from different tables or passages of the source.

What was measured:
HeLa Kyoto cells = experiment: Relative viability (HOE/PI) in HCHT screening
How it was run: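 HK cells exposed to increasing inhibitor concentrations, then fluorescent transporters at constant concentration, either after inhibitor removal (pre-incubation) or without removal (co-incubation).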

HK cells, transporter 31 = experiment: HCHT imaging: inhibition of cytosolic delivery of ETP transporter 31; type: cell-based, Human; details: inhibitor 1 h; for IC15: read-out: MIC (concentration needed to reach 15% inhibition), transporter 31 10 μM
How it was run: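 HeLa Kyoto cells grown 24 h in FluoroBrite DMEM + 10% FBS on 96-well black plates were exposed to serially diluted inhibitors for 1 h at 37 °C, then given fluorescent transporter 31 at 10 μM for 30 min, either after washing the inhibitor out (pre-incubation) or with it still present (co-incubation). Cytosolic delivery was then scored by automated HCHT live-cell imaging with Hoechst 33342 and PI staining.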

[1] = with transporter 28, co-incubation (C)
[2] = with transporter 31, co-incubation (C)
[3] = Homo sapiens, 1 h, read-out: IC50 (concentration needed to reach 50% inhibition), transporter 31 10 μM, co-incubation (C)
[4] = Homo sapiens, 1 h, co-incubation (C)
[5] = transporter 31 10 μM, co-incubation (C)
[6] = with transporter 28, pre-incubation (P)

| SMILES | RV50 (concentration needed to lower relative viability by 50%) (HeLa Kyoto cells; [1]) | RV50 (concentration needed to lower relative viability by 50%) (HeLa Kyoto cells; [2]) | IC50 (HK cells, transporter 31; [3]) | IC15 (HK cells, transporter 31; [4]) | IC50 (HK cells, transporter 31; read-out: IC50 (concentration needed to reach 50% inhibition), transporter 31 10 μM, co-incubation (C)) | MIC (concentration needed to reach 15% inhibition) (HK cells, transporter 31; [5]) | RV50 (concentration needed to lower relative viability by 50%) (HeLa Kyoto cells; with transporter 31, pre-incubation (P)) | IC15 (HK cells, transporter 31; Homo sapiens, 1 h, pre-incubation (P)) | IC50 (HK cells, transporter 31; Homo sapiens, read-out: IC50 (concentration needed to reach 50% inhibition), transporter 31 10 μM, pre-incubation (P)) | RV50 (concentration needed to lower relative viability by 50%) (HeLa Kyoto cells; [6]) |
| --- | --- | --- | --- | --- | --- | --- | --- | --- | --- | --- |
| O=S1(=O)C=C[C@@H](O)CS1 [Compound 12] | 100 µM | >50 µM | 7.2 ± 0.9 µM | < 1 µM | 7 µM | <1 µM |  |  |  |  |
| O=C1O[C@H]2CSS(=O)(=O)C[C@H]2O1 [Compound 11] | > 50 µM | >50 µM | > 50 µM | < 5 µM |  | <5 µM | >20 µM | 1.5 µM | 9 µM |  |
| [O-][S+]1C[C@@H](O)[C@@H](O)CS1 (some centres unmarked) [Compound 2] |  |  |  |  |  |  |  |  |  | >100 µM |
| O=S1(=O)C[C@H](O)[C@H](O)CS1 (stereo in doubt) [Compound 3, (4S,5R)-4,5-dihydroxy-1,2-dithiane-1,1-dioxide] |  | >1000 µM | 35 µM | 3 µM |  | 3 µM |  |  |  | >1000 µM |
